The source of these data is US9546381B2, “Use of anticoagulants in the production of recombinant proteins in the milk of transgenic animals” (priority 2010, dated 2017).

“And” between values parts separate entries of the source, which are not always exact repeats. Equal entries are not always repeated. Marks after values point to notes of the source that are not given here. Where only a bound is given, the exact number is not on record here.

The conditions of data set [1]: for 5 days; cited from earlier work.
Data set [2] concerns recombinant human fibrinogen (rhFib). In words: ELISA of rhFib concentration in the milk of warfarin-treated transgenic heifers. The settings on record: for rhFib level: ELISA, lines = day, warfarin started on day 1. (An ELISA detects its analyte on a solid surface through an enzyme-linked reagent.)
Data set [3] concerns clots and flakes in the milk of transgenic rhFib cattle. In words: Clot scoring of milk of transgenic rhFib cattle during induced lactation. It is filed as in vivo. Also noted: key to clot scores / clot score: 0: Normal milk; 1: Flakes; 2: Less than 10 clots from the quarter on the CMT paddle; 3: Greater than 10 clots from the quarter on the CMT paddle; 4: Severe visible clots. From the text: Recombinant human fibrinogen has been produced in the milk of transgenic cows for some years now. […] To score the level of clotting and to measure any effects, standards were set to determine whether treatment of the cows to reduce clotting was indeed effective. The standards are provided in Table I. Score level 0 is equal to normal milk from non-transgenic cows, whereas score level 4 equals a dramatic level of clotting and the milking machine is unable to extract the milk from the teat. CMT stands for ‘California Mastitis Test’ and is a standard cow side test that screens for the presence of mastitis, a known cause of milk clotting. When a cow is milked, the milk is collected in a so-called CMT paddle, which has four cups corresponding to the four quarters of the udder. To these cups, equal amounts of CMT solution (made up of a detergent to break down cell walls, a compound that reacts with the cellular DNA and a pH indicator; California Mastitis Test kit, TechniVet, Brunswick, Me.) is added after which the solution is swirled. The CMT solution provides an estimate of the number of cells in the milk (inflammatory cells due to infection by mastitis). As the cell content increases the mixture becomes thick and gel-like and the results are based on the appearance of the solutions. ‘Negative’ in the mastitis test means that the mixture remains fluid; ‘suspicious’ means that the mixture becomes slimy or gel like, and ‘positive’ means that the mixture distinctly forms a gel or jelly. […] The lack of mastitis was also confirmed by the fact that in laboratory tests no inflammatory-inducing bacteria were grown from the rhFib transgenic cow milk. Finally the clinical signs of the cows confirmed that infectious mastitis was not the etiology of the clotting. […] The (blue) staining by the CMT solution provided a useful tool to visualize the clots and helped to distinguish between some of the low scores of rate 1 and 2.
A cow's udder has four quarters, each with their own teat. A cow may loose a quarter due to mastitis but still give milk through the remaining quarters. […] Therefore at each milking period, each quarter was given a clot score and recorded on her milk sheet form. The highest score on the paddle for each day was considered the cow's score for that day when complying the clotting data.
With natural lactation, it is common for cattle to develop swelling and edema in their udders around the time of calving and as they “come into milk” during the first few weeks of lactation. This inflammation of the mammary tissue may activate the rhFib and lead to precipitation within the mammary tissue. This then may lead to a decrease in the milk production and difficulty in removing the milk from the gland. It was hypothesized by the inventors that by a non-natural lactation (that is: by a chemical/hormonal lactation induction), this udder swelling and edema would be avoided and the rhFib would not be activated. This would facilitate an easier lactation with minimal precipitation. For this reason, lactation induction was chosen to produce rhFib in cow #13.
After this, all clot scores remained between 0-1. […] This dose was maintained during day 17 to day 31 and all clot scores still remained between 0-1.
Seven transgenic rhFib cattle were induced to lactate using an estradiol-progesterone alcohol solution and dexamethasone injections as outlined above. From these seven animals, after an initial 34 days of milking, five transgenic cattle were selected to complete an ongoing 16 week lactation period (146 days in total). During this 16 week period 5 liters of milk was saved per animal per week for future production purposes. If an animal was to develop consistent clotting within this production period then a treatment trial with warfarin would begin. Data was collected on these animals to see what level of clot scores they generally reached. […]

Data set [4] can be described thus: Determination of warfarin dosing in non-transgenic non-lactating cows (PT time, adverse effects). It is filed as in vivo, cattle. As to the method: An initial experiment was performed to determine a dose range of warfarin in cattle. […] The doses therein range from 0.012 to 0.57 mg/kg.
An initial baseline Prothombin time (PT time) and Hematocrit (Hct) were determined. For cow #4289 Hct was 38 and PT was 25.9 seconds. For cow #6685 Hct was 27 and PT time was 26.7 seconds. PT time is a laboratory assay that reflects the depression of vitamin K dependent Factors II, -VII and -X. The PT times were used to determine the final dosing. The PT time test that is generally used in the art, looks at coagulation factors Factor I (fibrinogen), Factor II (prothrombin), Factor V, Factor VII and Factor X, that are all involved in clotting. The test measures the time it takes for a patient's blood to clot. […] The Hct value is helpful to determine if the animal is becoming anemic (i.e. blood loss that would not be grossly evident). In general, Hct is not checked unless one is concerned that blood loss is occurring.
Initially a dose necessary to double the baseline PT times was to be determined and then the dose was to be increased to monitor for adverse affects. It was decided that if the PT levels began to be prolonged over 2.5 times baseline, or Hct fell below 15% the dose would be decreased. Likewise, it was held that the dose would be decreased or discontinued if any of the following disorders would appear: hematomas, anemia, epistaxis, hematemesis, hematuria, melena, hemathrosis, hemothrax, weakness or hematochezia, or bleeding within the udder. Therapy with vitamin K1 and whole blood would be initiated if there was evidence of […] bleeding.
Moreover, and for the same reason, pregnant animals were also not treated with warfarin.
The dose was increased by 10 mg/day until a dose of 100 mg/day was given (˜0.14 mg/kg). Then, this dose was maintained for 12 days. […] Therefore the following adjustments were made: First, the animal was sedated with xylazine, and second, blood was only collected from the jugular vein while the animal's head was tightly restrained. The dose was increased to 120 mg/day (˜0.17 mg/kg) for 17 days.
It took 6 days of therapy for the PT times to double. […] For this reason, this dose of approximately 0.18 mg/kg was then considered unsafe for use in the transgenic rhFib cows.

The subject of data set [5] is clots and flakes in the milk of rhFib transgenic cattle. In words: Clot scoring of milk of rhFib transgenic cow and heifers during natural lactation. The settings on record: all five animals. Type of data set: in vivo. From the text: Recombinant human fibrinogen has been produced in the milk of transgenic cows for some years now. […] To score the level of clotting and to measure any effects, standards were set to determine whether treatment of the cows to reduce clotting was indeed effective. The standards are provided in Table I. Score level 0 is equal to normal milk from non-transgenic cows, whereas score level 4 equals a dramatic level of clotting and the milking machine is unable to extract the milk from the teat. CMT stands for ‘California Mastitis Test’ and is a standard cow side test that screens for the presence of mastitis, a known cause of milk clotting. When a cow is milked, the milk is collected in a so-called CMT paddle, which has four cups corresponding to the four quarters of the udder. To these cups, equal amounts of CMT solution (made up of a detergent to break down cell walls, a compound that reacts with the cellular DNA and a pH indicator; California Mastitis Test kit, TechniVet, Brunswick, Me.) is added after which the solution is swirled. The CMT solution provides an estimate of the number of cells in the milk (inflammatory cells due to infection by mastitis). […]
A cow's udder has four quarters, each with their own teat. […] Therefore at each milking period, each quarter was given a clot score and recorded on her milk sheet form. […]

For data set [6], the system named is clot formation in the milk of a transgenic cow. In words: Heparin therapy in one transgenic cow, clot scores. Type of data set: in vivo. As to the method:
The inventors also used heparin therapy in one transgenic cow to evaluate if it would prevent clot formation at a dose of 150 IU/kg SQ twice a day, for 5 days. While when the heparin was administered to this cow, the clot scores decreased. […] However, due to the high costs of using heparin, that treatment was not further investigated. Other anticoagulants can be used but many have the disadvantage that they need to be injected intravenously or subcutaneously rather than be or administered orally.

Consider `CC(=O)CC(c1ccccc1)c1c(O)c2ccccc2oc1=O` (centres unmarked) [warfarin], for which the LD50 for cattle in data set [1] is 200 mg/kg/day. The rhFib level is 1.3 mg/ml raw milk and 2.09 mg/ml raw milk in data set [2] (heifer 462); 1.61 mg/ml raw milk in data set [2] (heifer 463); 0.41 mg/ml raw milk and 0.58 mg/ml raw milk in data set [2] (heifer 474). Besides, the “concentration of rhFib in milk over time upon warfarin treatment” value in data set [2] (three warfarin-treated heifers, while clot score levels drop) was “seem to increase”. Further, the clot scores in data set [3] (#462 and #463, dry off period after warfarin stopped) was 3 (Greater than 10 clots from the quarter on the CMT paddle); in data set [3] (#462 at day 149, after warfarin stopped at day 142, milk started to plug the filters), 1; in data set [3] (#463 at day 161, single quarter, after warfarin stopped at day 142) it was 1; in data set [3] (cow #13, 0.12 mg/kg, day 17 to day 31), 0-1; in data set [3] (cow #13, 7 days after warfarin therapy was re-initiated) it was 1; in data set [3] (cow #13, 18 days after warfarin was again discontinued, until dried off), 2 (Less than 10 clots from the quarter on the CMT paddle). In addition, the clot scores in data set [3] (cow #13, induced lactation, 0.13 mg/kg orally once a day from Time 0) is reported as 0-1; in data set [3] (cow #13, over the next 11 days after re-initiation), 0; in data set [3] (cow #13, warfarin discontinued for 19 days), 2 (Less than 10 clots from the quarter on the CMT paddle); in data set [3] (three heifers #462, #463, #474, within a week after warfarin therapy was initiated), 1. The compound also had a clot score in data set [3] (#462 at day 125, single score during treatment) of 1. Also, the “time until clot scores increased to level 3 after warfarin was stopped” value in data set [3] (#474, stopped at day 142 of milking) is ≤ 3 days. Moreover, the “Highest clot score, #474 Frey” value in data set [3] (after discontinuation of warfarin on day 142 of lactation, lines = week of lactation) is recorded as 3* (Greater than 10 clots from the quarter on the CMT paddle). In addition, the adverse effects entry is “No adverse effects were observed” in data set [3] (cow #13, 0.12 or 0.13 mg/kg per day); “no adverse effects were observed” in data set [4] (cow #4289, 120 mg/day (~0.17 mg/kg) orally for 17 days); “developed a bleeding hematoma over the shoulder/thorax” in data set [4] (cow #4289, 130 mg/day (~0.18 mg/kg) orally for 6 days, animal euthanized); “No adverse affects were found” in data set [4] (cow #6685, 100 mg/day (~0.18 mg/kg) orally for 14 days). Also, the “clot scores reached with warfarin treatment” value in data set [3] (cow #13, within a week (conclusion)) is given as 0-1. The “PT times equal to or above twice the baseline value” in data set [3] (three rhFib-transgenic heifers, 0.10 mg/kg daily, PT monitored weekly) is recorded as “did not occur”. Besides, the “days of therapy for the PT times to double” value in data set [4] (cow #6685, 100 mg/day (~0.18 mg/kg)) turned out to be 6 days. The “adverse reactions from the warfarin treatment” value in data set [5] (0.10 to max 0.15 mg/kg) was “did not show any adverse reactions”. For the same compound, the highest clot scores in data set [5] (after a few days of warfarin 0.10 mg/kg) is on record as 0-1.

Turning to heparin, the clot scores entry in data set [6] (150 IU/kg SQ twice a day for 5 days, during administration) was “decreased”; in data set [6] (after heparin therapy was discontinued) it was “remained low and decreased further with time”.
